Target: T1, human ALK5 (ALK5 T204D kinase domain) (Homo sapiens, UniProt P36897, T204D)
T1 construct: The kinase domain of human ALK5 (amino acids 200-503); made in house; host or cells: insect cells (baculovirus)
T1 sequence (P36897 200-503 T204D): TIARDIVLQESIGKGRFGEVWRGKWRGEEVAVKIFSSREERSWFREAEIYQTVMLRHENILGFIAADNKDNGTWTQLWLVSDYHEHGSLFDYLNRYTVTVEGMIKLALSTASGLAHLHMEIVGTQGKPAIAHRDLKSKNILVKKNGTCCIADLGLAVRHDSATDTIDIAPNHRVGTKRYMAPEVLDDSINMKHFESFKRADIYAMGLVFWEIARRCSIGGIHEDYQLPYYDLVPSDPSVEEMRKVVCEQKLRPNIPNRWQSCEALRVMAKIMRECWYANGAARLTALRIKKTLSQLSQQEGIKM
Assay: ALK5 kinase assay, [33P] phosphate incorporation into casein
Format: biochemical
Details: casein substrate, 1 μM unlabelled ATP
Protocol: The kinase activity of ALK5 is assessed by measuring radiolabelled phosphate [33P] incorporation in to the generic substrate, casein. The kinase domain of human ALK5 (amino acids 200-503) is fused to an N-terminal histidine tag. The kinase activity of ALK5 is rendered constitutive via point mutation at amino acid 204 (threonine to aspartate modification, ALK5 T204D) and the kinase construct is engineered to be expressed from a baculovirus expression construct in insect cells. The purified, recombinantly-expressed histidine-tagged ALK5 T204D protein is dissolved at 5.4 mg/ml in 50 mM Tris-HCl pH 8.0, 150 mM NaCl, 5 mM DTT. ALK5 T204D is dissolved to 2.5 μg/ml in assay buffer (Assay buffer: 20 mM Tris-HCl pH 7.4, 10 mM MgCl2, 2 mM MnCl2) on the day of use.
Test compounds and reference compounds are dissolved in assay buffer without DTT containing 5% (v/v) DMSO. Stock solutions of test and reference compounds are diluted in assay buffer with DTT (1.25 mM) containing 4.5% (v/v) DMSO. 10 μl of test or reference compound are added to the appropriate wells of 96 well U-bottomed plate. Total enzyme activity is determined by measuring ALK5 T204D activity in the absence of ALK5 kinase inhibitor reference compounds. Non-specific binding (NSB) is determined by measuring the activity of ALK5 T204D in the presence of ALK5 kinase inhibitor reference compounds. 10 μl of dephosphorylated casein stock solution (dephosphorylated casein is dissolved in ddH2O at 20 mg/ml) is added per well (200 μg/well final assay concentration). 20 μl of ALK5 T204D (2.5 μg/ml solution) is added per well (50 ng/well final assay concentration). The plates are left to incubate at room temperature for 10 minutes.
10 μl of ATP mix is added to the well to initiate the reaction (0.66 nM [^33P]ATP/1 μM unlabelled ATP/well final assay concentration). The ATP mix is prepared as follows, unlabelled ATP (3 mM) is dissolved in ddH2O and pH adjusted to 7.4. The stock concentration of [^33P]ATP is 10 μCi/μl. The appropriate volume of [^33P]ATP is added to unlabelled ATP solution such that the final assay concentration per well is 0.1 μCi. Following addition of the ATP mix, the plates are incubated at room temperature for 50 minutes. The kinase reaction is terminated by the addition of 50 μL Stop Buffer (20 mM Tris-HCl pH 7.4, 10 mM EDTA).
75 μl/well from the reaction plate is transferred to a Multiscreen-IP plate (MultiScreen-IP plates are prepared by added 50 μL of 70% (v/v) ethanol per well and incubated for 5 minutes at room temperature. The ethanol is removed by aspiration via a MultiScreen HTS Vacuum Manifold unit (Millipore, Cat no: MSVMHT500). The plates are washed twice by adding 200 μl/well ddH2O). The MultiScreen-IP plate is incubated at room temperature for 30 minutes to allowing binding of casein to the plate. The MultiScreen-IP plates are washed three times by adding 200 μl/well 100 mM phosphoric acid solution and the gasket is carefully removed from the back of the MultiScreen-IP plate and the plate dried in the oven for 30 minutes. The MultiScreen-IP plate is backsealed, 50 μL of Microscint™20 is added, then the plates are topsealed and radiolabelled casein detected and quantified on a TopCount™ plate-reader using the ^33P scintillation protocol.

IC50 | SMILES
17 nM | CNc1cc(-c2cncc(-c3ccc(C(=O)N4CCN(C)CC4)cc3)c2)cc(-c2ccccn2)n1 [Example 2.1, [4-(6′-Methylamino-[2,2′;4′,3″]terpyridin-5″-yl)-phenyl]-(4-methyl-piperazin-1-yl)-methanone]
30 nM | CNc1cc(-c2cncc(-c3ccc(N4CCN(C)CC4)cc3)c2)cc(-c2ccccn2)n1 [Example 2.2, Methyl-{5″-[4-(4-methyl-piperazin-1-yl)-phenyl]-[2,2′;4′,3″]terpyridin-6′-yl}-amine]
209 nM | CNc1cc(-c2cncc(-c3cccc(N4CCCC4)c3)c2)cc(-c2ccccn2)n1 [Example 2.12, Methyl-[5″-(3-pyrrolidin-1-yl-phenyl)-[2,2′;4′,3″]terpyridin-6′-yl]-amine]
16 nM | CNc1cc(-c2cncc(-c3cccc(CN4CCN(C)CC4)c3)c2)cc(-c2ccccn2)n1 [Example 2.23, Methyl-{5″-[3-(4-methyl-piperazin-1-ylmethyl)-phenyl]-[2,2′;4′,3″]terpyridin-6′-yl}-amine]
14 nM | CNc1cc(-c2cncc(-c3ccc(CN4CCN(C(C)C)CC4)cc3)c2)cc(-c2ccccn2)n1 [Example 2.24, {5″-[4-(4-Isopropyl-piperazin-1-ylmethyl)-phenyl]-[2,2′;4′,3″]terpyridin-6′-yl}-methyl-amine]
12 nM | CNc1cc(-c2cncc(-c3ccc(CN4CCN(C)CC4)cc3)c2)cc(-c2ccccn2)n1 [Example 2.26, Methyl-{5″-[4-(4-methyl-piperazin-1-ylmethyl)-phenyl]-[2,2′;4′,3″]terpyridin-6′-yl}-amine]
8 nM | O=C(c1ccc(-c2cncc(-c3cc(NC4CC4)nc(-c4ccccn4)c3)c2)cc1)N1CCNCC1 [Example 2.30, [4-(6′-Cyclopropylamino-[2,2′;4′,3″]terpyridin-5″-yl)-phenyl]-piperazin-1-yl-methanone]
4 nM | CC(C)N1CCN(Cc2ccc(-c3cncc(-c4cc(NC5CC5)nc(-c5ccccn5)c4)c3)cc2)CC1 [Example 2.31, Cyclopropyl-{5″-[4-(4-isopropyl-piperazin-1-ylmethyl)-phenyl]-[2,2′;4′,3″]terpyridin-6′-yl}-amine]
235 nM | CN(C)[C@@H]1CCN(Cc2ccc(-c3cncc(-c4cc(NC5CC5)nc(-c5ccccn5)c4)c3)cc2)C1 [Example 2.62, Cyclopropyl-{5″-[4-((R)-3-dimethylamino-pyrrolidin-1-ylmethyl)-phenyl]-[2,2′;4′,3″]terpyridin-6′-yl}-amine]
28 nM | Cc1cccc(-c2cc(-c3cncc(-c4ccc(CO)cc4)c3)cc(NC3CC3)n2)n1 [Example 2.69, [4-(6′-Cyclopropylamino-6-methyl-[2,2′;4′,3″]terpyridin-5″-yl)-phenyl]-methanol]
89 nM | c1ccc(-c2cc(-c3cncc(-c4ccc(CN5CCNCC5)cc4)c3)cc(NC3CC3)n2)nc1 [Example 2.70, Cyclopropyl-[5″-(4-piperazin-1-ylmethyl-phenyl)-[2,2′;4′,3″]terpyridin-6′-yl]-amine]
74 nM | Cc1cccc(-c2cc(-c3cncc(-c4ccc(CN5CCN(C(C)C)CC5)cc4)c3)cc(N)n2)n1 [Example 2.71, 5″-[4-(4-Isopropyl-piperazin-1-ylmethyl)-phenyl]-6-methyl-[2,2′;4′,3″]terpyridin-6′-ylamine]
42 nM | CC(C)N1CCN(Cc2ccc(-c3cncc(-c4cc(N)nc(-c5ccccn5)c4)c3)cc2)CC1 [Example 2.72, 5″-[4-(4-Isopropyl-piperazin-1-ylmethyl)-phenyl]-[2,2′;4′,3″]terpyridin-6′-ylamine]
39 nM | CC(C)N1CCN(Cc2ccc(-c3cncc(-c4cc(-c5ccccn5)nc(C(C)(C)O)c4)c3)cc2)CC1 [Example 2.80, 2-(5″-[4-(4-Isopropyl-piperazin-1-ylmethyl)-phenyl]-[2,2′;4′,3″]terpyridin-6′-yl)-propan-2-ol]
28 nM | CC(C)(O)c1cc(-c2cncc(-c3ccc(CN4CCNCC4)cc3)c2)cc(-c2ccccn2)n1 [Example 2.81, 2-[5″-(4-piperazin-1-ylmethyl-phenyl)-[2,2′;4′,3″]terpyridin-6′-yl]-propan-2-ol]
36 nM | CC(C)(O)c1cc(-c2cncc(-c3ccc(CN4CCN(C(C)(C)C)CC4)cc3)c2)cc(-c2ccccn2)n1 [Example 2.82, 2-{5″-[4-(4-tert-Butyl-piperazin-1-ylmethyl)-phenyl]-[2,2′;4′,3″]terpyridin-6′-yl}-propan-2-ol]

Further lines, the compound ahead of its results:

SMILES | IC50
c1cncc(-c2cc(NCCc3c[nH]c4ccccc34)nc(-c3ccco3)c2)c1 [Example 1.1, (6′-Furan-2-yl-[3,4′]bipyridinyl-2′-yl)-[2-(1H-indol-3-yl)-ethyl]-amine] | 16 nM
c1cncc(-c2cc(NCc3cccc4[nH]ccc34)nc(-c3ccco3)c2)c1 [Example 1.2, (6′-Furan-2-yl-[3,4′]bipyridinyl-2′-yl)-(1H-indol-4-ylmethyl)-amine] | 19 nM
Cc1ccc(-c2cc(-c3cccnc3)cc(NCCc3c[nH]c4ccccc34)n2)o1 [Example 1.3, [2-(1H-Indol-3-yl)-ethyl]-[6′-(5-methyl-furan-2-yl)-[3,4′]bipyridinyl-2′-yl]-amine] | 23 nM
c1ccc(-c2cc(-c3cccnc3)cc(NCCc3cccc4[nH]ccc34)n2)nc1 [Example 1.6, [2-(1H-Indol-4-yl)-ethyl]-[2,2′;4′,3″]terpyridin-6′-yl-amine] | 29 nM
c1ccc(-c2cc(-c3cccnc3)cc(NCCc3c[nH]c4ccccc34)n2)nc1 [Example 1.10, [2-(1H-Indol-3-yl)-ethyl]-[2,2′;4′,3″]terpyridin-6′-yl-amine] | 57 nM
c1ccc(-c2cc(-c3cccnc3)cc(NCc3cccc4[nH]ccc34)n2)nc1 [Example 1.15, (1H-Indol-4-ylmethyl)-[2,2′;4′,3″]terpyridin-6′-yl-amine] | 190 nM
Oc1cccc(CNc2cc(-c3cncc(Br)c3)cc(-c3ccccn3)n2)c1 [Example 1.23, 3-[(5″-Bromo-[2,2′;4′,3″]terpyridin-6′-ylamino)-methyl]-phenol] | 214 nM
CNc1cc(-c2cncc(-c3ccnc(OC)c3)c2)cc(-c2ccccn2)n1 [Example 2.17, (2′″-Methoxy-[2,2′;4′,3″;5″,4′″]quaterpyridin-6′-yl)-methyl-amine] | 236 nM
CNc1cc(-c2cncc(-c3ccc(C(=O)N4CCN(C)CC4)cc3)c2)cc(-c2cccc(C)n2)n1 [Example 2.28, [4-(6-Methyl-6′-methylamino-[2,2′;4′,3″]terpyridin-5″-yl)-phenyl]-(4-methyl-piperazin-1-yl)-methanone] | 52 nM
[2H]C([2H])([2H])N1CCN(C(=O)c2ccc(-c3cncc(-c4cc(-c5ccccn5)nc(C(C)(C)O)c4)c3)cc2)CC1 [Example 2.83, {4-[6′-(1-Hydroxy-1-methyl-ethyl)-[2,2′;4′,3″]terpyridin-5″-yl]-phenyl}-(4-methyl-d3-piperazin-1-yl)-methanone] | 59 nM
CC(C)(O)c1cc(-c2cncc(-c3cnn(C4CCOCC4)c3)c2)cc(-c2ccccn2)n1 [Example 2.84, 2-{5″-[1-(Tetrahydro-pyran-4-yl)-1H-pyrazol-4-yl]-[2,2′;4′,3″]terpyridin-6′-yl}-propan-2-ol] | 20 nM
